How the values were obtained:
PP1c = test: Protein phosphatase assay with 32P-MLC20, native PP1c; type: biochemical; details: native PP1c from rabbit skeletal muscle; 1 µM 32P-MLC20; 10 min preincubation; mean ± SD
Experimental: (§1) Protein phosphatase activity of either skeletal muscle PP1c or PP2Ac (1.9–2.2 nM), or rPP1cα or rPP1cδ (2.71–3.72 nM), or FLAG-MYPT1-PP1c (∼9 nM) was assayed at 30 °C in absence or presence of polyphenol compounds (0.1–100 µM) in 20 mM Tris/HCl (pH 7.4), 0.1% 2-mercaptoethanol (30 µL). The purified phosphatase samples or HeLa lysates in 300-fold dilution (1.8–3.6 µg/ml) in the presence or absence of 2 µM I2 were preincubated with increasing concentration of the polyphenol compounds (0–100 µM) for 10 min then the reaction was started by the addition of 1 µM ^32P-MLC20 and incubated for 10 min. Polyphenol-treated HeLa cells were washed then lysed in 50 mM Tris/HCl (pH 8.0), 150 mM NaCl, 1% (V/V) Triton X-100, 0.15% (w/v) protease inhibitor cocktail. The phosphatase activity was assayed with 1 µM ^32P-MLC20 for 30 s in 3-fold final dilution (0.24–0.43 mg/ml). The reactions were terminated by the addition of 200 µL of 10% trichloroacetic acid and 200 µL of 6 mg/mL BSA solution. The samples were centrifuged for 3 min at 10,000 rpm and the supernatants (370 µL) were transferred into scintillation vials and the radioactivity of the released ^32Pi was determined in Tri-Carb 2800TR scintillation counter.
(§2) The ellagitannins (Figure 1) assayed on the activity of PP1c or PP2Ac in this study are similar to PGG in composition, but they differ structurally in two important aspects: (i) all of them include hexahydroxydiphenoyl unit linked in various positions, except for pedunculagin which includes two of these linkages; (ii) tellimagrandin I, pedunculagin, and praecoxin B have free glycosidic hydroxyls, while GHG has an unmodified hydroxyl at position 3 of the glucopyranose ring. […] Inhibition of the phosphatase activity by ellagitannins in HeLa cell lysate was also assessed. First, we determined the activity of PP1 and PP2A in the lysates using I2 to inhibit PP1, and low concentration of OA (2 nM) to suppress PP2A specifically, in order to determine the contribution of PP1 and PP2A to the phosphatase activity of lysates (Figure 2(E)).
(§3) Figure 2. The effect of ellagitannins on the activity of PP1 and PP2A. Ellagitannins (0.1–100 µM) were preincubated with the phosphatase samples for 10 min and the phosphatase activity was determined in triplicates with 1 µM ^32P-MLC20 substrate as described in “Materials and methods” section. […] The effect of tellimagrandin I on the activity of rPP1cα (^) and rPP1cδ (●) (C), or FLAG-MYPT1-PP1cδ (▼) (D), or on the phosphatase activity of HeLa lysate in the presence of I2 (□) (F). The effect of I2 and OA on the phosphatase activity of HeLa lysate (E). Phosphatase activity in the absence of ellagitannins, I2 or OA was taken as 100%. Data are means ± SD (n = 3–5).

PP2Ac = test: Protein phosphatase assay with 32P-MLC20, native PP2Ac; type: biochemical; details: native PP2Ac from rabbit skeletal muscle; 1 µM 32P-MLC20; 10 min preincubation; mean ± SD
Experimental: as §1, §2, §3

HeLa lysate = test: Phosphatase activity of HeLa cell lysate (32P-MLC20); type: biochemical, human; details: HeLa lysate in 300-fold dilution; 1 µM 32P-MLC20; mean ± SD
Experimental: as §1, §2, §3

rPP1cα = target: T1, rPP1cα (Homo sapiens, UniProt P62136); test: Microscale thermophoresis (MST); type: binding; details: unlabelled rPP1cα, intrinsic fluorescence (NT.LabelFree)
T1 construct: FLAG; made in house
T1 sequence (P62136 whole entry): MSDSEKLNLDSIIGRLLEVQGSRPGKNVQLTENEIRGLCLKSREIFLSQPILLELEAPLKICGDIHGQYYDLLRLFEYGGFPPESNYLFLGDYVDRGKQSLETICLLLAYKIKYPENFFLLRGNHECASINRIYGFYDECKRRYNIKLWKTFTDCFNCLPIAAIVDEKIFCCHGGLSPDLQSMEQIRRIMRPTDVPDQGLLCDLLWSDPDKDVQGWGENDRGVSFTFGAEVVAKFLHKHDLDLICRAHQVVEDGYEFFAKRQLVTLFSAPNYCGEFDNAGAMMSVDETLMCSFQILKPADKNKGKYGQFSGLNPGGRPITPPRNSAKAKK
Experimental: Figure 3. […] The changes in either, the intrinsic fluorescence of unlabelled rPP1cα upon binding to tellimagrandin I and PGG, or changes in fluorescent signal from rPP1cα extrinsically labelled with NT647 dye upon binding with EGCG, were determined at a range of concentration of polyphenols, and the fractions bound are presented. Data points are means ± SD (n = 3).

HeLa cells [1] = test: HeLa cell viability, Alamar-blue assay; type: cell-based, human; details: 24 h incubation, serum free; 0-50 µM tested
Experimental: HeLa cells and tsa201 cells were cultured as recommended by the supplier. Prior to treatments HeLa cells were serum starved in MEM medium supplemented with 2 mM L-glutamine for 17 h. For phosphatase activity assay cells were treated with increasing concentration of polyphenol compounds (1–50 µM) for 1 h. To assess cell viability by Alamar-blue assay serum starved cells were treated with ellagitannins (1–50 µM) for 24 h in serum free MEM medium. The media was exchanged for resazurin (20 µM) containing serum free media and the cells were incubated for 2 h to enhance resorufin formation by the viable cells. The emission of resorufin was measured by a fluorimeter at 620 nm.
Figure 4. Distinct influence of ellagitannins on the survival and phosphatase activity of HeLa cells. The effect of tellimagrandin I and mahtabin A was assayed on the survival (A) and the phosphatase activity (B) of HeLa cells in 0–50 µM concentration range as detailed in Materials and methods. The cell survival and the phosphatase activity in the absence of ellagitannins were taken as 100%. Data represent means ± SD (n = 3). ANOVA *p < .05, **p < .01, ***p < .001, n.s.: not significant.

HeLa cells [2] = test: Phosphatase activity of polyphenol-treated HeLa cells; type: cell-based, human; details: 1 h incubation; 0-50 µM tested
Experimental: as §1
HeLa cells and tsa201 cells were cultured as recommended by the supplier. […] The emission of resorufin was measured by a fluorimeter at 620 nm. […]

SNAP-25^Thr138 = test: Phosphorylation of SNAP-25 Thr138 in cortical synaptosomes (Western blot); type: cell-based, mouse; details: synaptosomes treated 45 min at 30 °C; ellagitannins 1-100 µM, TMC 10 µM
Experimental: (§4) Preparation of synaptosomes from murine brain cortex was carried out as described previously. Functional synaptosomes were kept in Krebs buffer (118 mM NaCl, 5 mM KCl, 25 mM NaHCO3, 1 mM MgCl2, 10 mM D-glucose, pH 7.4). After preparation, synaptosomes were treated with either tellimagrandin I or mahtabin A in 1, 10 or 100 µM final concentrations, or with 10 µM tautomycetin (TMC) for 45 min at 30 °C. After the treatments synaptosomes were applied for exocytosis assay or were lysed and the protein lysates were subjected to Western blot. For exocytosis assay an already established protocol[25] was used. FM 2–10 water-soluble styryl dye was incorporated first into the outer leaflet of synaptosome membrane, then into the synaptosomes. Exocytosis was induced by addition of 30 mM KCl to the synaptosomes. The fluorescent intensity of FM 2–10 styryl dye negatively correlated with the extent of synatposomal exocytosis and was measured by Fluoroskan FL (excitation: 488 nm, emission: 540 nm). Western blot of synaptosome proteins was carried out as described previously[24]^,[25].
Figure 5. […] E: Representative Western blot with anti- SNAP-25^pThr138 specific antibody. F: Relative changes in the amount of SNAP-25^pThr138 determined by densitometry of the Western blots normalised on the bands obtained for the loading controls. Data are means ± SD (n = 3). ANOVA *p < .05, **p < .01, ***p < .001, n.s.: not significant.

[3] = test system: mouse cortical synaptosomes; test: KCl induced exocytosis of cortical synaptosomes (FM 2-10 dye); type: cell-based; details: 30 mM KCl; FM 2-10 fluorescence; 45 min treatment
Experimental: as §4
Figure 5. […] E: Representative Western blot with anti- SNAP-25^pThr138 specific antibody. F: Relative changes in the amount of SNAP-25^pThr138 determined by densitometry of the Western blots normalised on the bands obtained for the loading controls. Data are means ± SD (n = 3). […]

IC50 (PP1c) [µM]	IC50 (PP2Ac) [µM]	IC50 (HeLa lysate) [µM]	SMILES	Kd (rPP1cα) [µM]	Effect on viability (survival) of HeLa cells (HeLa cells [1])	Effect on phosphatase activity of HeLa cells (HeLa cells [2])	Effect on phosphorylation level of SNAP-25^Thr138 (SNAP-25^Thr138)	Effect on KCl induced synaptosomal exocytosis [3]
1.41 ± 0.3	> 100	13 ± 3.3	O=C(O[C@@H]1O[C@@H]2COC(=O)c3cc(O)c(O)c(O)c3-c3c(cc(O)c(O)c3O)C(=O)O[C@H]2[C@H](O)[C@H]1OC(=O)c1cc(O)c(O)c(O)c1)c1cc(O)c(O)c(O)c1 [GHG, 1,2-di-O-galloyl-4,6-(S)-hexahydroxydiphenoyl-β-D-glucose]					
			O=C(OC[C@H]1O[C@@H](OC(=O)c2cc(O)c(O)c(O)c2)[C@H](OC(=O)c2cc(O)c(O)c(O)c2)[C@@H](OC(=O)c2cc(O)c(O)c(O)c2)[C@@H]1OC(=O)c1cc(O)c(O)c(O)c1)c1cc(O)c(O)c(O)c1 [PGG, penta-O-galloyl-β-D-glucose]	3.08 ± 0.35				
~2.47	> 100	33.9 ± 4.54	O=C1OC[C@H]2OC(O)[C@@H]3OC(=O)c4cc(O)c(O)c(O)c4-c4c(cc(O)c(O)c4O)C(=O)O[C@H]3[C@@H]2OC(=O)c2cc(O)c(O)c(O)c2-c2c1cc(O)c(O)c2O (some centres unmarked) [pedunculagin]					

SMILES	IC50 (PP1c) [µM]	IC50 (PP2Ac) [µM]	IC50 (HeLa lysate) [µM]	Kd (rPP1cα) [µM]	Effect on viability (survival) of HeLa cells (HeLa cells [1])	Effect on phosphatase activity of HeLa cells (HeLa cells [2])	Effect on phosphorylation level of SNAP-25^Thr138 (SNAP-25^Thr138)	Effect on KCl induced synaptosomal exocytosis [3]
O=C(OC[C@H]1O[C@@H](OC(=O)c2cc(O)c(O)c(O)c2)[C@@H]2OC(=O)c3cc(O)c(O)c(O)c3-c3c(cc(O)c(O)c3O)C(=O)O[C@H]2[C@@H]1OC(=O)c1cc(O)c(O)c(O)c1)c1cc(O)c(O)c(O)c1 [mahtabin A]	0.41 ± 0.18	33.8 ± 8.44	6.19 ± 0.37		without effect	without effect	increased the amount of phosphorylated SNAP-25^Thr138	suppressed exocytosis

Source: paper PMC6352937, “Inhibition of protein phosphatase-1 and -2A by ellagitannins: structure-inhibitory potency relationships and influences on cellular systems” (Journal of Enzyme Inhibition and Medicinal Chemistry, 2019)
